The IC50 is the midpoint of a concentration-inhibition curve.

Several values for one entry are separate records, joined by “and”; a condition that tells them apart may be missing. Identical values can stand only once.

RIPK1, sequence (Q13546 1-327): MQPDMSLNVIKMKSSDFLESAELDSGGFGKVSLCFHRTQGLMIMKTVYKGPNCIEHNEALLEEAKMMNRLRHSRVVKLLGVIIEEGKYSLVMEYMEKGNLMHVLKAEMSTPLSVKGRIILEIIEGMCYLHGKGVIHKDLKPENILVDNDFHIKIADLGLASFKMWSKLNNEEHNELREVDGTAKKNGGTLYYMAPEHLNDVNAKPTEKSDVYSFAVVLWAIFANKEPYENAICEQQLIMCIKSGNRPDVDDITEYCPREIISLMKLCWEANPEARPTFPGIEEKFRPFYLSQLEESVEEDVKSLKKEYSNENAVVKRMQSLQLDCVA

The first test has as its system human monocytic cell line U937. The experiment in a line: Human U937 Cellular Necroptosis Assay. The class given is cell-based. The following applies: U-937; U937 cells stimulated with 25 ng/mL human TNFalpha and 25 μM z-VAD-FMK, 22 hr, viability by Cell Titer-Glo 2.0; average value across multiple runs; read-out: hU937 IC50. The method, then: Human U937 Cellular Necroptosis Assay
The human monocytic cell line U937 (CRL-1593.2) was purchased from ATCC. The cells were routinely maintained in RPMI-1640 Medium (Gibco, Catalog #11875-093) supplemented with 10% heat inactivated fetal bovine serum (Gibco, Catalog #16140-071), 100 units/mL penicillin and 100 μg/mL streptomycin (Gibco, Catalog #15140-122), in a humidified incubator (37° C., 5% CO2). For the assay, cells were resuspended in RPMI-1640 phenol red free Media (Gibco, Catalog #11835-030) supplemented with 10% fetal bovine serum (Sigma, Catalog #F2442), 100 units/mL penicillin and 100 ug/mL streptomycin. Cells were stimulated with 25 ng/mL human TNFalpha (Cell Sciences, Catalog #CSI15659B) and 25 μM z-VAD-FMK (R&D Systems, Catalog #FMK001) followed by seeding 5000 cells per well in a volume of 40 μL to a white, CulturPlate-384 (Perkin Elmer, Catalog #6007680). Stock solutions of the test compounds were prepared in 100% DMSO (Sigma, Catalog #D2650) and serially diluted 1:3 using 100% DMSO. Compounds were additionally diluted 1:40 in assay medium, and 10 μL/well was transferred to the plate. Following the compound addition the plate was incubated at 37° C. and 5% CO2 for 22 hr. After 22 hr, viability was assessed with the addition of 20 μL of Cell Titer-Glo 2.0 (Promega, Catalog #G9243). The tissue culture plate was shaken on an orbital shaker at 300 RPM for 15 minutes at room temperature in the dark. Luminescence was measured using a PerkinElmer Envision™ plate reader. IC50 values were calculated using a four-parameter logistic curve fit using Genedata Screener software. Results are shown below in Table 5, where the average value across multiple runs is given.
`Cc1cc(=O)c(C(=O)N[C@@H]2C(=O)Nc3ncccc3O[C@@H]2C)nn1-c1ccccc1` [Example 80, 6-methyl-N-((2R,3S)-2-methyl-4-oxo-2,3,4,5-tetrahydropyrido[3,2-b]-[1,4]oxazepin-3-yl)-4-oxo-1-phenyl-1,4-dihydropyridazine-3-carboxamide]: the IC50 amounted to 3.71 µM.

The target of a further test is RIPK1 (Homo sapiens (Human), UniProt Q13546). Nature of the test: ADP-Glo Kinase Assay. The class given is biochemical. The following applies: 5 nM RIPK1 protein, 50 μM ATP, 6 hr reaction, average value across multiple runs. The method, then:
In order to measure RIPK1 activity the ADP-Glo kinase assay (Promega, Catalog #V7002) was used to measure the conversion of ATP to ADP. This enzymatic assay was performed in a 384-well white, Optiplate (Perkin Elmer, Catalog #6007299) with assay buffer consisting of 50 mM HEPES pH 7.5 (Gibco, Catalog #15630-080), 50 mM NaCl (Teknova, Catalog #S0252), 30 mM MgCl2 (Ambion, Catalog #AM9530G), 1 mM DTT (Santa Cruz Biotechnology, Catalog #sc-29089), 0.05% BSA (Sigma, Catalog #A3059-50G) and 0.02% CHAPS (Sigma, Catalog #C5070-5G). Stock solutions of the test compounds were prepared in 100% DMSO (Sigma, Catalog #D2650) and serially diluted 1:3 using 100% DMSO. Compounds were additionally diluted 1:40 in assay buffer, and 2 μL/well were transferred to the assay plate. 4 μL/well (final concentration of 5 nM) of RIPK1 protein (SignalChem, Catalog #R07-11G-05) diluted in assay buffer and added to the assay plate followed by a 10 minute preincutation at room temperature. 4 μL/well of ATP (Promega, Catalog #V7002) (final concentration of 50 μM) diluted in assay buffer were then added to the assay plate followed by a 6 hr reaction time. Final concentrations of RIPK1 and ATP refer to a 10 μL volume. Luminescence was measured using a BioTek Synergy™ NEO plate reader. IC50 values were calculated using a four-parameter logistic curve fit using Genedata Screener software. Results are shown below in Table 4, where the average value across multiple runs is given.
In general terms: ADP-Glo first removes unused ATP, then detects ADP through luciferase.
In the case of `Cc1cc(=O)c(C(=O)Nc2cnns2)nn1-c1ccccc1` [Example 116, 6-methyl-4-oxo-1-phenyl-N-(1,2,3-thiadiazol-5-yl)-1,4-dihydropyridazine-3-carboxamide], the IC50 is 8.52 µM and 17.4 µM. For the compound `Cc1cc(=O)c(C(=O)NC2CC2)nn1-c1ccccc1` [Example 91, N-cyclopropyl-6-methyl-4-oxo-1-phenyl-1,4-dihydropyridazine-3-carboxamide], the concentration for half-maximal inhibition (IC50) is 5.31 µM. Still for that read-out and setting: in the case of `Cc1cc(C)c2nc(NC(=O)c3nn(-c4ccccc4)c(C)cc3=O)sc2c1` [Example 87, N-(4,6-dimethylbenzo[d]thiazol-2-yl)-6-methyl-4-oxo-1-phenyl-1,4-dihydropyridazine-3-carboxamide] it was 20.8 µM. Same read-out and setting: in the case of `Cc1ncnc(C)c1NC(=O)c1nn(-c2ccccc2)c(C)cc1=O` [Example 25, N-(4,6-dimethylpyrimidin-5-yl)-6-methyl-4-oxo-1-phenyl-1,4-dihydropyridazine-3-carboxamide] it was 3.87 µM; in that of `Cc1cc(=O)c(C(=O)Nc2c(C(C)C)nn(C)c2C(C)C)nn1-c1ccccc1` [Example 89, N-(3,5-diisopropyl-1-methyl-1H-pyrazol-4-yl)-6-methyl-4-oxo-1-phenyl-1,4-dihydropyridazine-3-carboxamide], 18.6 µM; in that of `Cc1cc(=O)c(C(=O)Nc2c3c(nc4ccccc24)CCCC3)nn1-c1ccccc1` [Example 23, 6-methyl-4-oxo-1-phenyl-N-(1,2,3,4-tetrahydroacridin-9-yl)-1,4-dihydropyridazine-3-carboxamide], 1.14 µM. Consider `Cc1cc(=O)c(C(=O)Nc2ccccc2F)nn1-c1ccccc1` [Example 108, N-(2-fluorophenyl)-6-methyl-4-oxo-1-phenyl-1,4-dihydropyridazine-3-carboxamide], for which the IC50 is 28.7 µM.

Consider `Cc1noc(C)c1NC(=O)c1nn(-c2ccccc2)c(C)cc1=O` [Example 16, N-(3,5-dimethylisoxazol-4-yl)-6-methyl-4-oxo-1-phenyl-1,4-dihydropyridazine-3-carboxamide], for which the 50% inhibitory concentration (IC50) was found to be 4.4 µM. With `Cc1noc(C(C)NC(=O)c2nn(-c3ccccc3)c(C)cc2=O)n1` (stereo not shown) [Example 105, 6-methyl-N-(1-(3-methyl-1,2,4-oxadiazol-5-yl)ethyl)-4-oxo-1-phenyl-1,4-dihydropyridazine-3-carboxamide], the half-maximal inhibitory concentration (IC50) came out at 36.9 µM. Turning to `Cc1noc(C2CC2)c1NC(=O)c1nn(-c2ccccc2)c(C)cc1=O` [Example 112, N-(5-cyclopropyl-3-methylisoxazol-4-yl)-6-methyl-4-oxo-1-phenyl-1,4-dihydropyridazine-3-carboxamide], the IC50 turned out to be 0.791 µM.

In the case of `Cc1cc(=O)c(C(=O)Nc2ccccn2)nn1-c1ccccc1Cl` [Example 102, 1-(2-chlorophenyl)-6-methyl-4-oxo-N-(pyridin-2-yl)-1,4-dihydropyridazine-3-carboxamide], the half-maximal inhibitory concentration (IC50) amounted to 2.37 µM. Consider `Cc1cc(=O)c(C(=O)NC(C)(C)C)nn1-c1ccccc1` [Example 85, N-(tert-butyl)-6-methyl-4-oxo-1-phenyl-1,4-dihydropyridazine-3-carboxamide], for which the IC50 turned out to be 38.8 µM. Same read-out and setting: in the case of `Cc1cc(=O)c(C(=O)NCc2cc(F)cc(F)c2)nn1-c1ccccc1` [Example 3, N-(3,5-difluorobenzyl)-6-methyl-4-oxo-1-phenyl-1,4-dihydropyridazine-3-carboxamide] it was 10.2 µM; in that of `Cc1cc(=O)c(C(=O)Nc2cc(Cl)c3ncsc3c2)nn1-c1ccccc1` [Example 12, N-(4-chlorobenzo[d]thiazol-6-yl)-6-methyl-4-oxo-1-phenyl-1,4-dihydropyridazine-3-carboxamide], 1.18 µM; in that of `Cc1n[nH]c(C)c1NC(=O)c1nn(-c2ccccc2)c(C)cc1=O` [Example 19, N-(3,5-dimethyl-1H-pyrazol-4-yl)-6-methyl-4-oxo-1-phenyl-1,4-dihydropyridazine-3-carboxamide], 12.6 µM.

As to `Cc1cc(=O)c(C(=O)Nc2ccc(F)cc2)nn1-c1ccccc1` [Example 109, N-(4-fluorophenyl)-6-methyl-4-oxo-1-phenyl-1,4-dihydropyridazine-3-carboxamide], the IC50 came out at 28.1 µM.

For `CN1C(=O)C(NC(=O)c2nn(-c3ccccc3)c(CCl)c(Cl)c2=O)CCc2cc(Cl)ccc21` (stereo not shown) [Example 46, 5-chloro-N-(7-chloro-1-methyl-2-oxo-2,3,4,5-tetrahydro-1H-benzo[b]azepin-3-yl)-6-(chloromethyl)-4-oxo-1-phenyl-1,4-dihydropyridazine-3-carboxamide], the concentration for half-maximal inhibition (IC50) is 1.44 µM. Still for that read-out and setting: for `Cc1cccc(NC(=O)c2nn(-c3ccccc3F)c(C)cc2=O)n1` [Example 95, 1-(2-fluorophenyl)-6-methyl-N-(6-methylpyridin-2-yl)-4-oxo-1,4-dihydropyridazine-3-carboxamide] the value was 3.94 µM; for `Cc1cc(=O)c(C(=O)Nc2c(C(C)C)n[nH]c2C(C)C)nn1-c1ccccc1` [Example 90, N-(3,5-diisopropyl-1H-pyrazol-4-yl)-6-methyl-4-oxo-1-phenyl-1,4-dihydropyridazine-3-carboxamide], 41.9 µM. Still for that read-out and setting: in the case of `Cc1cc(=O)c(C(=O)Nc2cncc(Cl)c2)nn1-c1ccccc1` [Example 10, N-(5-chloropyridin-3-yl)-6-methyl-4-oxo-1-phenyl-1,4-dihydropyridazine-3-carboxamide] it was 0.39 µM; in that of `Cc1cccc(NC(=O)c2nn(-c3ccccc3F)c(C)cc2=O)c1` [Example 107, 1-(2-fluorophenyl)-6-methyl-4-oxo-N-(m-tolyl)-1,4-dihydropyridazine-3-carboxamide], 20.2 µM. The same measure, in the same setting: for `Cc1ccnc(NC(=O)c2nn(-c3ccccc3)c(C)cc2=O)c1` [Example 114, 6-methyl-N-(4-methylpyridin-2-yl)-4-oxo-1-phenyl-1,4-dihydropyridazine-3-carboxamide] the value was 5.6 µM and 7.5 µM. Consider `Cc1cccc(C(C)(C)C)c1NC(=O)c1nn(-c2ccccc2)c(C)cc1=O` [Example 28, N-(2-(tert-butyl)-6-methylphenyl)-6-methyl-4-oxo-1-phenyl-1,4-dihydropyridazine-3-carboxamide], for which the 50% inhibitory concentration (IC50) amounted to 2.68 µM. The same measure, in the same setting: in the case of `Cc1cc(=O)c(C(=O)NC(c2ccccc2)C2CC2)nn1-c1ccccc1` (stereo not shown) [Example 98, N-(cyclopropyl(phenyl)methyl)-6-methyl-4-oxo-1-phenyl-1,4-dihydropyridazine-3-carboxamide] it was 3.57 µM; in that of `Cc1cc(=O)c(C(=O)Nc2c(C(C)C)cccc2C(C)C)nn1-c1ccccc1` [Example 117, N-(2,6-diisopropylphenyl)-6-methyl-4-oxo-1-phenyl-1,4-dihydropyridazine-3-carboxamide], 1.19 µM. On the same count and under the same terms, in the case of `Cc1cc(=O)c(C(=O)Nc2cccc(Cl)c2)nn1-c1ccccc1` [Example 4, N-(3-chlorophenyl)-6-methyl-4-oxo-1-phenyl-1,4-dihydropyridazine-3-carboxamide] it was 0.08 µM; in that of `Cc1ccnc(NC(=O)c2nn(-c3ccccc3F)c(C)cc2=O)c1` [Example 94, 1-(2-fluorophenyl)-6-methyl-N-(4-methylpyridin-2-yl)-4-oxo-1,4-dihydropyridazine-3-carboxamide], 6.35 µM.

For the origin of these results see US11690850B2, “Inhibitors of receptor interacting protein kinase I for the treatment of disease” (Board of Regents, The University of Texas System, priority 2019, dated 2023).
